pIC50: −log10 of the molar value.
What was measured:
Type in all cases: functional
Cavia porcellus [1] = species on record: Cavia porcellus; assay: Inhibitory activity of the Compound was tested against U-46619 induced contraction of guinea pig trachea at 2*10e-5 M concentration.
Cavia porcellus [2] = species on record: Cavia porcellus; assay: Inhibitory activity of the Compound was tested against LTD4 induced contraction of guinea pig trachea at 2*10e-5 M concentration.
Cavia porcellus [3] = species on record: Cavia porcellus; assay: Inhibitory activity of the Compound was tested against U-46619 induced contraction of guinea pig trachea at 1*10e-5 M concentration.
Cavia porcellus [4] = species on record: Cavia porcellus; assay: Inhibitory activity of the Compound was tested against LTD4 induced contraction of guinea pig trachea at 2*10e-6 M concentration.
Cavia porcellus [5] = species on record: Cavia porcellus; assay: Inhibitory concentration of the Compound was tested against LTD4 induced contraction of guinea pig trachea.
Cavia porcellus [6] = species on record: Cavia porcellus; assay: Inhibitory activity of the Compound was tested against LTD4 induced contraction of guinea pig trachea at 2*10e-7 M concentration.
Cavia porcellus [7] = species on record: Cavia porcellus; assay: Inhibitory activity of the Compound was tested against U-46619 induced contraction of guinea pig trachea.
Cavia porcellus [8] = species on record: Cavia porcellus; assay: Inhibitory activity of the Compound was tested against U-46619 induced contraction of guinea pig trachea at 3*10e-7 M concentration.
Cavia porcellus [9] = species on record: Cavia porcellus; assay: Inhibitory activity of the Compound was tested against LTD4 induced contraction of guinea pig trachea at 3*10e-7 M concentration.
Cavia porcellus [10] = species on record: Cavia porcellus; assay: Inhibitory activity of the Compound was tested against U-46619 induced contraction of guinea pig trachea at 1*10e-6 M concentration.
Cavia porcellus [11] = species on record: Cavia porcellus; assay: Inhibitory activity of the Compound was tested against LTD4 induced contraction of guinea pig trachea at 1*10e-6 M concentration.
Cavia porcellus [12] = species on record: Cavia porcellus; assay: Inhibitory activity of the Compound was tested against LTD4 induced contraction of guinea pig trachea at 3*10e-6 M concentration.
Cavia porcellus [13] = species on record: Cavia porcellus; assay: Inhibitory activity of the Compound was tested against U-46619 induced contraction of guinea pig trachea at 2*10e-6 M concentration.
Cavia porcellus [14] = species on record: Cavia porcellus; assay: Inhibitory activity of the Compound was tested against U-46619 induced contraction of guinea pig trachea at 3*10e-6 M concentration.
Cavia porcellus [15] = species on record: Cavia porcellus; assay: Inhibitory activity of the Compound was tested against U-46619 induced contraction of guinea pig trachea at 2 *10e-7 M concentration.
Cavia porcellus [16] = species on record: Cavia porcellus; assay: Inhibitory activity of the Compound was tested against U-46619 induced contraction of 2*10e-5 M concentration.
Cavia porcellus [17] = species on record: Cavia porcellus; assay: Inhibitory activity of the Compound was tested against U-46619 induced contraction of guinea pig trachea at 2*10e-7 M concentration.
Cavia porcellus [18] = species on record: Cavia porcellus; assay: Inhibitory activity of the Compound was tested against LTD4 induced contraction of guinea pig trachea at 1*10e-5 concentration.
Cavia porcellus [19] = species on record: Cavia porcellus; assay: Inhibitory activity of the Compound was tested against LTD4 induced contraction of guinea pig trachea at 1*10e-5 M concentration.
Cavia porcellus [20] = species on record: Cavia porcellus; assay: Inhibitory activity of the Compound was tested against U-46619 induced contraction of guinea pig trachea at 2*10e-5 concentration.
Cavia porcellus [21] = species on record: Cavia porcellus; assay: Inhibitory activity of the Compound was tested against U-46619 induced contraction of guinea pig trachea at 1*10e-4 M concentration.
Cavia porcellus [22] = species on record: Cavia porcellus; assay: Inhibitory activity of the Compound was tested against LTD4 induced contraction of guinea pig trachea at 2*10e5- M concentration.
Cavia porcellus [23] = species on record: Cavia porcellus; assay: Inhibitory activity of the Compound was tested against LTD4 induced contraction of guinea pig trachea at 1*10e-4 M concentration.
Cavia porcellus [24] = species on record: Cavia porcellus; assay: Inhibitory activity of the Compound was tested against U-46619 induced contraction of guinea pig trachea at 3*10e-8 M concentration.

Row | Structure (SMILES) | Inhibition (Cavia porcellus [1]) [%] | Inhibition (Cavia porcellus [2]) [%] | pIC50 (Cavia porcellus [5]) | pIC50 (Cavia porcellus [7]) | Inhibition (Cavia porcellus [14]) [%] | other results
1 | COC1(OC)C(=O)C(C/C=C(\C)CCC=C(C)C)=C(O)C(CC=C(C)C)=C1O | 94.9 | 63.6 |  |  |  | 
2 | CCCC(=O)c1c(O)cc(O)cc1O |  |  |  |  |  | Inhibition (Cavia porcellus [3]): 27.3%
3 | CCC(=O)c1c(O)cc(O)c(C(=O)CC)c1O | 53.4 | 97.1 | 4.92 |  |  | Inhibition (Cavia porcellus [4]): 42.5%; Inhibition (Cavia porcellus [6]): 30.8%
4 | CCC1(CC)C(=O)C(C(=O)C(C)C)=C(O)C(C(=O)C(C)C)=C1O |  |  | 6.46 | 6.51 |  | Inhibition (Cavia porcellus [8]): 49%; Inhibition (Cavia porcellus [9]): 44.9%; Inhibition (Cavia porcellus [10]): 84.2%; Inhibition (Cavia porcellus [11]): 87.8%
5 | CC(C)C(=O)C1=C(O)C(C)(C)C(O)=C(C(=O)C(C)C)C1=O |  |  | 6.24 | 6.24 | 80.2 | Inhibition (Cavia porcellus [12]): 87%; Inhibition (Cavia porcellus [13]): 61.2%; Inhibition (Cavia porcellus [4]): 60.7%; Inhibition (Cavia porcellus [6]): 36.8%; Inhibition (Cavia porcellus [15]): 38.5%
6 | CC(C)CC(=O)c1c(O)cc(O)cc1O |  |  |  | 5.33 | 22.7 | Inhibition (Cavia porcellus [3]): 96.6%
7 | CCCC(=O)c1c(O)cc(O)c(C(=O)CCC)c1O |  | 87 | 5.85 | 5.57 |  | Inhibition (Cavia porcellus [13]): 57%; Inhibition (Cavia porcellus [16]): 72.5%; Inhibition (Cavia porcellus [17]): 8.4%; Inhibition (Cavia porcellus [4]): 59.4%; Inhibition (Cavia porcellus [6]): 12.5%
8 | CCCCCCCC(=O)c1c(O)cc(O)c(C(=O)CCCCCCC)c1O | 15.1 | 17.4 |  |  |  | 
9 | CCCCC1(CCCC)C(=O)C(C(=O)C(C)C)=C(O)C(C(=O)C(C)C)=C1O | 91.6 | 100 | 5.92 | 5.74 | 58.6 | Inhibition (Cavia porcellus [12]): 66.5%
10 | CCCC1(CCC)C(=O)C(C(=O)C(C)C)=C(O)C(C(=O)C(C)C)=C1O | 81.7 | 88.5 | 5.23 | 5.16 | 25.3 | Inhibition (Cavia porcellus [12]): 28.5%
11 | CCCCCC1(CCCCC)C(=O)C(C(=O)C(C)C)=C(O)C(C(=O)C(C)C)=C1O | 80.4 | 95 | 5.64 | 5.25 | 17 | Inhibition (Cavia porcellus [12]): 58.3%
12 | CCC(C)C(=O)c1c(O)cc(O)c(C(=O)C(C)CC)c1O (stereo not given) | 98 | 80.1 | 5.85 | 5.77 |  | Inhibition (Cavia porcellus [13]): 34.7%; Inhibition (Cavia porcellus [4]): 45.5%
13 | CC(=O)c1c(O)cc(O)c(C(C)=O)c1O | 44.3 | 39.1 |  |  |  | 
14 | CC(C)CC(=O)c1c(O)cc(O)c(C(=O)CC(C)C)c1O | 100 | 100 | 6.25 | 5.82 |  | Inhibition (Cavia porcellus [13]): 42%; Inhibition (Cavia porcellus [17]): 22.6%; Inhibition (Cavia porcellus [4]): 78.2%; Inhibition (Cavia porcellus [6]): 29.9%
15 | CCC(C)C(=O)c1c(O)cc(O)cc1O (stereo not given) |  |  |  | 5.22 | 13.8 | Inhibition (Cavia porcellus [3]): 76.3%; Inhibition (Cavia porcellus [18]): 25.4%
16 | CCCCCC(=O)c1c(O)cc(O)cc1O |  | 93.9 | 5.12 | 5.05 |  | Inhibition (Cavia porcellus [19]): 62.3%; Inhibition (Cavia porcellus [20]): 100%; Inhibition (Cavia porcellus [3]): 56.9%
17 | CCCCCC(=O)c1c(O)cc(O)c(C(=O)CCCCC)c1O | 25.9 | 43.3 |  |  |  | 
18 | CC(C)=CCC/C(C)=C/COc1cc(O)c(C(=O)C(C)C)c(O)c1C | 10.8 |  |  |  |  | Inhibition (Cavia porcellus [21]): 50%; Inhibition (Cavia porcellus [22]): 12.6%; Inhibition (Cavia porcellus [23]): 50.9%
19 | CC(C)C(=O)c1c(O)cc(O)c(C(=O)C(C)C)c1O | 53.6 | 92.3 | 5.92 |  |  | Inhibition (Cavia porcellus [4]): 48.5%; Inhibition (Cavia porcellus [6]): 28.9%
20 | CC(C)C(=O)c1c(C(C)C)nn2ccccc12 [IBUDILAST] |  |  |  |  |  | Inhibition (Cavia porcellus [24]): 85.4%
21 | CC(C)C(=O)c1c(O)cc(O)cc1O [PHLOROISOBUTYROPHENONE] |  |  |  | 5.18 | 11 | Inhibition (Cavia porcellus [19]): 32%; Inhibition (Cavia porcellus [3]): 70.4%

Reference: ChEMBL document CHEMBL1126287, “Analogues of natural phloroglucinols as antagonists against both thromboxane A2 and leukotriene D4” (J Med Chem, 1992)
